Publication PMC12389534, “Unlocking Therapeutic Potential of Novel Thieno-Oxazepine Hybrids as Multi-Target Inhibitors of AChE/BChE and Evaluation Against Alzheimer’s Disease: In Vivo, In Vitro, Histopathological, and Docking Studies” (Pharmaceuticals, 2025)

Assays:
Caspase-1 = Caspase-1 gene expression (RT-qPCR); format: in vivo, rat; set-up: reduction of Caspase-1 levels: concentration or dose not given beside the values; conditions: AlCl3-induced AD rats
Procedure: (§1) The brain tissues of the rats were removed and rigorously washed in isotonic saline 24 h after they were euthanized following the last behavioral test. For histological investigation, four brains per group were preserved for the whole night in 10% neutral buffered formalin. The remaining six brains were split into two sections each. In order to create a 10% homogenate (w/v), the first component was instantaneously homogenized using an ice-cold solution that included 300 mM sucrose and 50 mM Tris-HCl (pH 7.4). The homogenate was centrifuged at 1800× g for 10 min at 4 °C for biochemical tests, and the supernatant was thereafter kept at −20 °C. The second portion was set aside for use in RT-PCR analysis at −80 °C [94].
(§2) See Supplementary Information.

BChE = target: T1, BChE (Homo sapiens, UniProt P06276); assay: biochemical
T1 construct: purchased Invitrogen EIABCHEF
Procedure: Using an Invitrogen BChE test kit (Catalog #EIABCHEF), the assay was performed in compliance with the supplier’s instructions. The study was conducted using black 96-well plates. […] Each well was then filled with 50 μL of the reaction mixture, which consisted of fluorescence detection reagent and butyrylthiocholine iodide in assay buffer. The plate was then left to incubate for 20 min at room temperature. Finally, excitation at 390 nm was used to observe emission at 510 nm using a microplate reader. Background fluorescence was further eliminated for each data point.

HO-1 = HO-1 mRNA expression (RT-qPCR); format: in vivo, rat; conditions: AlCl3-induced AD rats
Procedure: as §1, §2

Wnt3a = assay: Brain Wnt3a level; format: in vivo, rat; conditions: AlCl3-induced AD rats
Procedure: as §1, §2

SOD = assay: Brain SOD activity (colorimetric); format: in vivo, rat; conditions: brain tissue, AlCl3-induced AD rats; mean ± SE, n = 6
Procedure: as §1
(§3) The SOD enzyme activity was estimated using the Marklund et al. method, which is founded on the enzyme’s capacity to decrease the nitro blue tetrazolium dye at a wavelength of 540 nm. To evaluate the TAC, a colorimetric approach was employed to estimate the amount of hydrogen peroxide that remains after 3,5-dichloro-2-hydroxybenzene sulphonate is converted to a colored product at 660 nm.

BDNF = assay: Brain BDNF level (ELISA); format: in vivo, rat; conditions: AlCl3-induced AD rats
Procedure: as §1, §2

5-HT = assay: Brain 5-HT level (fluorometric); format: in vivo, rat; conditions: AlCl3-induced AD rats
Procedure: as §1
(§4) Brain monoamine levels were promptly assessed following the rats’ euthanasia to prevent changes in the substance’s concentration. Dopamine (DA), norepinephrine (NE), and serotonin (5-HT) fluorometric tests were conducted on brain tissue homogenate using the Ciarlone method. […] The concentrations were articulated as nanograms per gram of fresh tissue using the fluorescence of reference solutions [95].

DA = assay: Brain DA level (fluorometric); format: in vivo, rat; conditions: AlCl3-induced AD rats
Procedure: as §1, §4

NE = assay: Brain NE level (fluorometric); format: in vivo, rat; conditions: AlCl3-induced AD rats
Procedure: as §1, §4

TLR4 = TLR4 mRNA expression (RT-qPCR); format: in vivo, rat; set-up: reduction of TLR4 mRNA expression: concentration or dose not given beside the values; conditions: AlCl3-induced AD rats
Procedure: as §1, §2

TNF-α = assay: Brain TNF-α level (ELISA); format: in vivo, rat; conditions: AlCl3-induced AD rats
Procedure: as §1, with “[94]. […]” for “[94].”

IL-1β = assay: Brain IL-1β level (ELISA); format: in vivo, rat; set-up: reduction in IL-1β levels: concentration or dose not given beside the values; conditions: AlCl3-induced AD rats
Procedure: as §1, with “[94]. […]” for “[94].”

Nrf-2 = Nrf-2 mRNA expression (RT-qPCR); format: in vivo, rat; conditions: mRNA expression in brain tissue; AlCl3-induced AD rats; mean ± SE, n = 6
Procedure: as §1, §2

BACE1 = assay: Brain BACE1 level (ELISA); format: in vivo, rat; set-up: reduction of BACE1 levels: concentration or dose not given beside the values; conditions: AlCl3-induced AD rats
Procedure: as §1, with “[94]. […]” for “[94].”

β-catenin = assay: Brain β-catenin level; format: in vivo, rat; conditions: AlCl3-induced AD rats
Procedure: as §1, §2

Bcl-2 = Bcl-2 gene expression (RT-qPCR); format: in vivo, rat; conditions: AlCl3-induced AD rats
Procedure: as §1, §2

MDA = assay: Brain MDA content (thiobarbituric acid method); format: in vivo, rat; set-up: reduction in MDA brain content: concentration or dose not given beside the values; conditions: AlCl3-induced AD rats
NLRP3 = NLRP3 mRNA expression (RT-qPCR); format: in vivo, rat; set-up: reduction of NLRP3 mRNA expression: concentration or dose not given beside the values; conditions: AlCl3-induced AD rats
Procedure: as §1, §2

GSK3β = GSK3β gene expression (RT-qPCR); format: in vivo, rat; conditions: gene expression; AlCl3-induced AD rats; mean ± SE, n = 6
Procedure: as §1, §2

TAC = assay: Brain TAC (colorimetric); format: in vivo, rat; conditions: AlCl3-induced AD rats
Procedure: as §1, §3

AChE = format: in vivo; set-up: reduction in AChE levels: concentration or dose not given beside the values; conditions: AlCl3-induced AD rats
BAX/Bcl-2 = BAX/Bcl-2 ratio of gene expression; format: in vivo, rat; conditions: AlCl3-induced AD rats
Procedure: as §1, §2

BAX = BAX gene expression (RT-qPCR); format: in vivo, rat; conditions: AlCl3-induced AD rats
Procedure: as §1, §2

NFκβ = NFκβ mRNA expression (RT-qPCR); format: in vivo, rat; set-up: reduction of NFκβ mRNA expression: concentration or dose not given beside the values; conditions: AlCl3-induced AD rats
Procedure: as §1, §2

[1] = gene expression, mean ± SE, n = 6
[2] = mRNA expression level, mean ± SE, n = 6

T1 sequence (P06276 29-602): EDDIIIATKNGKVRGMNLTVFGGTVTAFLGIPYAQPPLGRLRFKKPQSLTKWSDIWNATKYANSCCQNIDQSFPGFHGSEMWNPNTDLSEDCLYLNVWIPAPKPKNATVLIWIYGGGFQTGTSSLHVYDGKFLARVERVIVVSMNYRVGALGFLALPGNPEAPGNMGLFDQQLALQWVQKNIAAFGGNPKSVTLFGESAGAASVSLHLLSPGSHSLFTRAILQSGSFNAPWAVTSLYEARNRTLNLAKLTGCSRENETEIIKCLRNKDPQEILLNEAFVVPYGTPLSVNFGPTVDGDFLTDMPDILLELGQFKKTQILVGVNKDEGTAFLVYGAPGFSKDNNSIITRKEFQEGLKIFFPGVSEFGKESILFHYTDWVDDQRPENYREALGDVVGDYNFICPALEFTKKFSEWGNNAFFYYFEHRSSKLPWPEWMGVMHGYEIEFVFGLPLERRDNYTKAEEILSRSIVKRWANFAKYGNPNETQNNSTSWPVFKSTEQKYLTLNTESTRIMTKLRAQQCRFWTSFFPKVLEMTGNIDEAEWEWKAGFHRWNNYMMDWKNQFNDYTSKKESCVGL

## O=C1CN(c2ccccc2)C(=O)c2c(sc3c2CCCCC3)O1 [Compound 11, 4-Phenyl-3,4,7,8,9,10-hexahydro-6H-cyclohepta[4,5]thieno[3,2-f][1,4]oxazepine-2,5-dione]
Caspase-1
  reduction of Caspase-1 levels: 37.8%
Caspase-1; [1]
  Caspase-1: 5.92 ± 0.040 ^abc
BChE; fluorescence kit, triplicate
  IC50: 13.8 ± 0.48 µM
BChE; ratio of IC50 BChE to IC50 AChE, <1 = preferential BChE inhibition
  Selectivity Index BChE/AChE: 5.18
HO-1
  elevation of HO-1 mRNA expression: 4.4 fold
HO-1; mRNA expression in brain tissue, mean ± SE, n = 6
  HO-1: 0.53 ± 0.004 ^abc
Wnt3a
  elevation of Wnt3a levels: 3.9 fold
Wnt3a; mean ± SE, n = 6
  Wnt3a (ng/g Tissue): 0.47 ± 0.01 ^abc ng/g Tissue
SOD
  SOD(U/g): 2.46 ± 0.32 ^abc U/g
BDNF
  elevation of BDNF levels: 3 fold
BDNF; brain tissue, mean ± SE, n = 6
  BDNF (ng/mL): 127.3 ± 0.01 ^abc ng/mL
5-HT
  elevation of 5-HT levels: 5.0 fold
5-HT; brain tissue, mean ± SE, n = 6
  5-HT (ng/g Tissue): 9.13 ± 0.36 ^abc ng/g Tissue
DA
  elevation of DA levels: 4.6 fold
DA; brain tissue, mean ± SE, n = 6
  DA (ng/g Tissue): 54.63 ± 6.11 ^abc ng/g Tissue
NE
  rise in the level of NE: 1.7 times
NE; brain tissue, mean ± SE, n = 6
  NE (nmol/g Tissue): 321.2 ± 6.11 ^abc nmol/g Tissue
TLR4
  reduction of TLR4 mRNA expression: 42.2%
TLR4; [2]
  TLR4: 5.56 ± 0.1 ^abc
TNF-α
  decline in TNF-α levels: 43.6%
TNF-α; mean ± SE, n = 6
  TNF-α (pg/g Tissue): 99.23 ± 0.42 ^abc pg/g Tissue
IL-1β
  reduction in IL-1β levels: 42.1%
IL-1β; mean ± SE, n = 6
  IL-β (pg/g Tissue): 68.56 ± 0.54 ^abc pg/g Tissue
Nrf-2
  Nrf-2: 0.35 ± 0.006 ^abc
BACE1
  reduction of BACE1 levels: 36.5%
BACE1; mean ± SE, n = 6
  BACE1 (ng/mL): 18.83 ± 0.13 ^abc ng/mL
β-catenin
  elevation of β-catenin levels: 4.8 fold
β-catenin; mean ± SE, n = 6
  β-Catenin (ng/L): 7.25 ± 0.04 ^abc ng/L
Bcl-2
  upregulation of Bcl-2 gene expression: 4.3 fold
Bcl-2; [1]
  Bcl-2: 0.52 ± 0.020 ^abc
MDA
  reduction in MDA brain content: 68.4%
MDA; brain tissue, mean ± SE, n = 6
  MDA (nmol/g Tissue): 36.75 ± 0.09 ^abc nmol/g Tissue
NLRP3
  reduction of NLRP3 mRNA expression: 49.5%
NLRP3; [2]
  NLRP3: 5.39 ± 0.11 ^abc
GSK3β
  GSK3β: 2.34 ± 0.06 ^abc
TAC
  improvement of TAC levels: 4 times
TAC; brain tissue, mean ± SE, n = 6
  TAC (µmol/g Tissue): 38.23 ± 0.50 ^abc µmol/g Tissue
AChE; brain tissue, mean ± SE, n = 6
  AChE (ng/g Tissue): 20.09 ± 0.45 ^abc ng/g Tissue
AChE; brain
  reduction in AChE levels: 70.1%
BAX/Bcl-2
  BAX/Bcl-2 Ratio: 13.15
BAX
  suppression of BAX gene expression: 29.3%
BAX; [1]
  BAX: 6.84 ± 0.090 ^abc
NFκβ
  reduction of NFκβ mRNA expression: 41.8%
NFκβ; [2]
  NFκβ: 4.93 ± 0.08 ^abc
